# Source: PubChem BioAssay AID214 (DTP/NCI, 2004)
# “And” between values parts separate entries of the source, which are not always exact repeats. Equal values may be shown once. Inconclusive results are not listed.
# System: B6C3F1 mice, colon carcinoma 38 s.c., T/C
# Experiment: NCI In Vivo Anticancer Drug Screen. Data for tumor model Colon Carcinoma 38 (subcutaneous) in B6C3F1 mice
# Conditions: endpoint: median tumor weight (est.), higher = larger tumour
# Method: The antitumor activity of compounds was measured in mice bearing transplantable tumors. Survival or tumor size were measured and the results are expressed as the measurement made in the treated group (T) divided by the measurement made in the vehicle treated control group (C). The tumor model used in this assay is Colon Carcinoma 38 (subcutaneous) in B6C3F1 mice
# [1] = dose: 100.0 mg/kg/injection, schedule: Q07DX002 (ip), vehicle: Klucel (hydroxypropylcellulose) (HPC)
# [2] = dose: 0.5 mg/kg/injection, schedule: Q07DX002 (ip), vehicle: saline
# [3] = dose: 4.0 mg/kg/injection, schedule: Q07DX002 (ip), vehicle: saline
# [4] = dose: 50.0 mg/kg/injection, schedule: Q07DX002 (ip), vehicle: Klucel (hydroxypropylcellulose) (HPC)
# [5] = dose: 25.0 mg/kg/injection, schedule: Q07DX002 (ip), vehicle: Klucel (hydroxypropylcellulose) (HPC)
# [6] = dose: 200.0 mg/kg/injection, schedule: Q07DX002 (ip), vehicle: Klucel (hydroxypropylcellulose) (HPC)
# [7] = dose: 400.0 mg/kg/injection, schedule: Q07DX002 (ip), vehicle: Klucel (hydroxypropylcellulose) (HPC)
# [8] = dose: 150.0 mg/kg/injection, schedule: Q07DX002 (ip), vehicle: saline
# [9] = dose: 300.0 mg/kg/injection, schedule: Q07DX002 (ip), vehicle: saline
# [10] = dose: 50.0 mg/kg/injection, schedule: Q07DX002 (ip), vehicle: suspension in saline
# [11] = dose: 100.0 mg/kg/injection, schedule: Q07DX002 (ip), vehicle: suspension in saline
smiles,measurement,setting,value
O=C(CCBr)N1CCN(C(=O)CCBr)CC1,T/C,"dose: 40.0 mg/kg/injection, schedule: Q07DX002 (ip), vehicle: saline with Tween-80",81 % of control
same,T/C,"dose: 80.0 mg/kg/injection, schedule: Q07DX002 (ip), vehicle: saline with Tween-80",20 % of control and 33 % of control
same,T/C,"dose: 320.0 mg/kg/injection, schedule: Q07DX002 (ip), vehicle: saline with Tween-80",6 % of control
C=C(Cl)C(=NC(C)(C)C)Nc1ccccc1C,T/C,[1],88 % of control
[Cl][Hg][Cl],T/C,"dose: 1.56 mg/kg/injection, schedule: Q07DX002 (ip), vehicle: saline",80 % of control
same,T/C,"dose: 3.12 mg/kg/injection, schedule: Q07DX002 (ip), vehicle: saline",124 % of control
COC(=O)C[C@](O)(CCC(C)(C)O)C(=O)O[C@@H]1C(OC)=C[C@]23CCCN2CCc2cc4c(cc2[C@H]13)OCO4,T/C,[2],117 % of control
same,T/C,"dose: 1.0 mg/kg/injection, schedule: Q07DX002 (ip), vehicle: saline",54 % of control
same,T/C,"dose: 2.0 mg/kg/injection, schedule: Q07DX002 (ip), vehicle: saline",40 % of control
same,T/C,[3],14 % of control
CC(C)CCC(=O)c1ccoc1,T/C,"dose: 0.25 mg/kg/injection, schedule: Q03HX006 (ip), vehicle: saline with Tween-80",56 % of control
same,T/C,"dose: 0.5 mg/kg/injection, schedule: Q03HX006 (ip), vehicle: saline with Tween-80",56 % of control
same,T/C,"dose: 1.0 mg/kg/injection, schedule: Q03HX006 (ip), vehicle: saline with Tween-80",81 % of control
same,T/C,"dose: 2.0 mg/kg/injection, schedule: Q03HX006 (ip), vehicle: saline with Tween-80",87 % of control
COC(=O)NC1C(C)OC(OC2C/C=C(/C)C3C=CC4C(OC5CC(OC6CCC(OC7CC(O)C(OC8CCC(O)C(C)O8)C(C)O7)C(C)O6)C(OC(C)=O)C(C)O5)C(C)CC(C)C4C3(C)/C(O)=C3/C(=O)OC4(CC(C=O)=CC(O)C4/C=C\2C)C3=O)CC1(C)[N+](=O)[O-] (stereo not drawn),T/C,"dose: 2.5 mg/kg/injection, schedule: Q07DX002 (ip), vehicle: water",86 % of control
same,T/C,"dose: 5.0 mg/kg/injection, schedule: Q07DX002 (ip), vehicle: water",96 % of control
same,T/C,"dose: 10.0 mg/kg/injection, schedule: Q07DX002 (ip), vehicle: water",89 % of control
same,T/C,"dose: 20.0 mg/kg/injection, schedule: Q07DX002 (ip), vehicle: water",82 % of control
O=C(CCCN1CCC(C(O)c2ccc(F)cc2)CC1)c1ccc(F)cc1 (stereo not drawn),T/C,"dose: 12.5 mg/kg/injection, schedule: Q07DX002 (ip), vehicle: saline with Tween-80",59 % of control
same,T/C,"dose: 25.0 mg/kg/injection, schedule: Q07DX002 (ip), vehicle: saline with Tween-80",49 % of control
same,T/C,"dose: 50.0 mg/kg/injection, schedule: Q07DX002 (ip), vehicle: saline with Tween-80",92 % of control
same,T/C,"dose: 100.0 mg/kg/injection, schedule: Q07DX002 (ip), vehicle: saline with Tween-80",67 % of control
Cc1cc(Nc2ccc3c(c2)OCO3)c2cc3c(cc2n1)OCO3,T/C,[4],78 % of control and 103 % of control
same,T/C,[1],96 % of control and 113 % of control and 115 % of control
CCCNC1=C(C)C(=O)C2=C(C1=O)[C@H](COC(N)=O)[C@]1(OC)[C@@H]3N[C@@H]3CN21,T/C,"dose: 1.5 mg/kg/injection, schedule: Q07DX002 (ip), vehicle: suspension in saline",73 % of control
same,T/C,"dose: 3.0 mg/kg/injection, schedule: Q07DX002 (ip), vehicle: suspension in saline",114 % of control
same,T/C,"dose: 6.0 mg/kg/injection, schedule: Q07DX002 (ip), vehicle: suspension in saline",112 % of control
same,T/C,"dose: 12.0 mg/kg/injection, schedule: Q07DX002 (ip), vehicle: suspension in saline",33 % of control
same,T/C,"dose: 24.0 mg/kg/injection, schedule: Q07DX002 (ip), vehicle: suspension in saline",36 % of control
OCC1OC(n2cnc3c(=S)nc[nH]c32)C(O)C1O (stereo not drawn),T/C,"dose: 250.0 mg/kg/injection, schedule: Q07DX002 (ip), vehicle: suspension in saline",74 % of control
same,T/C,"dose: 500.0 mg/kg/injection, schedule: Q07DX002 (ip), vehicle: suspension in saline",31 % of control
same,T/C,"dose: 1000.0 mg/kg/injection, schedule: Q07DX002 (ip), vehicle: suspension in saline",41 % of control
O=P1(NCCCl)OCCCN1CCCl (stereo not drawn),T/C,"dose: 30.0 mg/kg/injection, schedule: Q01DX006 (ip), vehicle: saline",61 % of control
CCNC(=O)[B-][N+](C)(C)C,T/C,[5],101 % of control
same,T/C,[4],55 % of control
same,T/C,[1],87 % of control
same,T/C,[6],107 % of control
same,T/C,[7],81 % of control
Cc1cc(N/N=C/c2ccccn2)nc2ccccc12,T/C,[4],65 % of control
same,T/C,[1],90 % of control
same,T/C,[6],74 % of control
C=C1COC(O)(C2OCOC(C3CC(=O)NC(=O)C3)C2O)C1C (stereo not drawn),T/C,"dose: 31.25 micrograms/kg/injection, schedule: Q07DX002 (ip), vehicle: water",119 % of control
OCC(O)C(O)C(O)C(O)CO (stereo not drawn),T/C,"dose: 75.0 mg/kg/injection, schedule: Q07DX002 (ip), vehicle: saline",90 % of control
same,T/C,[8],66 % of control
same,T/C,[9],111 % of control
same,T/C,"dose: 600.0 mg/kg/injection, schedule: Q07DX002 (ip), vehicle: saline",92 % of control
same,T/C,"dose: 1200.0 mg/kg/injection, schedule: Q07DX002 (ip), vehicle: saline",86 % of control
COc1ccc2cc1Oc1ccc(cc1)C[C@H]1c3cc(c(OC)cc3CCN1C)Oc1c(OC)c(OC)cc3c1[C@H](C2)N(C)CC3,T/C,"dose: 150.0 mg/kg/injection, schedule: Q07DX002 (ip), vehicle: saline with Tween-80",102 % of control and 106 % of control
same,T/C,"dose: 300.0 mg/kg/injection, schedule: Q07DX002 (ip), vehicle: saline with Tween-80",57 % of control
same,T/C,"dose: 600.0 mg/kg/injection, schedule: Q07DX002 (ip), vehicle: saline with Tween-80",29 % of control
Nc1ncn(C2OC(CO)C(O)C2O)c(=O)n1 (stereo not drawn),T/C,[3],60 % of control
same,T/C,"dose: 8.0 mg/kg/injection, schedule: Q07DX002 (ip), vehicle: saline",82 % of control
same,T/C,"dose: 16.0 mg/kg/injection, schedule: Q07DX002 (ip), vehicle: saline",33 % of control
same,T/C,"dose: 32.0 mg/kg/injection, schedule: Q07DX002 (ip), vehicle: saline",6 % of control
same,T/C,"dose: 64.0 mg/kg/injection, schedule: Q07DX002 (ip), vehicle: saline",2 % of control
OC(CBr)C(O)C(O)C(O)CBr (stereo not drawn),T/C,[5],83 % of control
same,T/C,[4],83 % of control
C=C(C(=O)O)C(N)C(=O)O (stereo not drawn),T/C,[8],56 % of control
same,T/C,[9],94 % of control
CCCCNc1ccc2nnc(C)n2n1,T/C,"dose: 50.0 mg/kg/injection, schedule: Q07DX002 (ip), vehicle: DMSO",98 % of control
same,T/C,"dose: 200.0 mg/kg/injection, schedule: Q07DX002 (ip), vehicle: DMSO",114 % of control
Oc1c(Cl)cc(Cl)cc1C=NCCSc1ccc(Cl)cc1,T/C,[4],118 % of control
same,T/C,[1],81 % of control
same,T/C,[6],109 % of control
same,T/C,[7],63 % of control
CCN(CC)CCNc1ccc(C)c2sc3ccccc3c(=O)c12,T/C,[10],66 % of control
same,T/C,[11],42 % of control
same,T/C,"dose: 200.0 mg/kg/injection, schedule: Q07DX002 (ip), vehicle: suspension in saline",2 % of control
O=c1[nH]cnc2[nH]ncc12,T/C,"dose: 25.0 mg/kg/injection, schedule: Q07DX002 (ip), vehicle: suspension in saline",83 % of control
same,T/C,[10],69 % of control
same,T/C,[11],88 % of control
CCN(CC)CCOCCO,T/C,[10],150 % of control
same,T/C,[11],160 % of control
Cn1c(=O)[nH]c2nncnc2c1=O,T/C,"dose: 12.5 mg/kg/injection, schedule: Q07DX002 (ip), vehicle: water",104 % of control and 112 % of control
same,T/C,"dose: 50.0 mg/kg/injection, schedule: Q07DX002 (ip), vehicle: water",117 % of control and 119 % of control
same,T/C,"dose: 100.0 mg/kg/injection, schedule: Q07DX002 (ip), vehicle: water",120 % of control
O=C(O)Cc1cccc2c(=O)c(-c3ccccc3)coc12,T/C,"dose: 100.0 mg/kg/injection, schedule: Q07DX002 (ip), vehicle: saline",177 % of control
same,T/C,"dose: 200.0 mg/kg/injection, schedule: Q07DX002 (ip), vehicle: saline",76 % of control
same,T/C,"dose: 400.0 mg/kg/injection, schedule: Q07DX002 (ip), vehicle: saline",121 % of control
CO[C@@]12[C@H](COC(N)=O)C3=C(C(=O)C(C)=C(N)C3=O)N1C[C@@H]1N[C@@H]12,T/C,[2],77 % of control
same,T/C,[3],18 % of control and 19 % of control
O=NN(CCF)C(=O)NC1CCCCC1,T/C,"dose: 6.25 mg/kg/injection, schedule: Q07DX002 (ip), vehicle: Klucel (hydroxypropylcellulose) (HPC)",115 % of control
same,T/C,[5],77 % of control
